Results from US20030104079A1, “Skin tissue regeneration promoters comprising ginsenoside Rb1” (Japan Science and Technology Corporation, Japan, priority 2000, published 2003).

Columns and labels:
spinal cord injury = conditions: continuous intravenous administration 60 pg/day; cited from earlier work
open wound of skin = test: Open wound (skin defect) healing by intravenous infusion after punch biopsy; type: in vivo, Wistar rats; conditions: vs physiological saline
Procedure: We have examined whether intravenous administration of ginsenoside Rb1 at low dosages or low doses can promote regeneration and/or reconstruction of skin tissue in diseases with defect of skin tissue (bedsore, skin ulcer, burn, frostbite, radiation injury, open wound, ultraviolet injury, electric injury, etc.). For that purpose, for example, by using male Wistar rats (body weight about 300 g), punch biopsy with diameter 6 mm was performed in the dorsal skin region of animals under inhalation anesthesia to prepare open wound, and the animals were allowed to leave as they were. About 1 hour later, ginsenoside Rb1 (12 μg) dissolved in physiological saline was once administered intravenously, then ginsenoside Rb1 was continuously infused intravenously for 7 days by using an Alza osmotic minipump (12 μg/day).
An equal amount of physiological saline was administered intravenously in the control animals, for which the same open wound was made to leave the animals as they were.
On day 2 after finishing continuous intravenous administration of ginsenoside Rb1 or physiological saline, the animals were anesthetized with pentobarbital and fixed transcardialy with perfusion of 0.1 M phosphate buffer containing 4% paraformaldehyde. Thereafter, the skin tissue including the open wound was dissected out, post-fixed and embedded in paraffin. […]

[1] = test system: cultured nerve cells (neurons); conditions: same SNP culture system, Japanese Patent Appln. No. Hei 10-365560; cited from earlier work
[2] = Observation of administered animals for side effects; type: in vivo, rats; conditions: present experiments, animals carefully observed
Description: The amount of administration of ginsenoside Rb1, which is used as the preparation(s) for external or topical application to skin or the preparation(s) for external or topical application to mucosa, is far smaller than the amount of intravenous administration.
Actually, as indicated in PCT/JP00/04102 (Brain cell or nerve cell protecting agents comprising ginseng), as far as directing treatment or therapy of cerebral infarction by continuous intravenous administration in a dose of […] (weighing 300 g), dihydroginsenoside Rb1 is thought to be a quite safe pharmaceutical composition. The amount of administration of ginsenoside Rb1, which is used as the preparation(s) for external or topical application to skin or the preparation(s) for external or topical application to mucosa, is far smaller than the amount of intravenous administration.

[3] = test system: skin epidermal keratinocytes or hornified cells; conditions: extracellular fluid concentration 100 μg/ml; cited from earlier work

For `CC(C)=CCC[C@](C)(O[C@@H]1O[C@H](CO[C@@H]2O[C@H](CO)[C@@H](O)[C@H](O)[C@H]2O)[C@@H](O)[C@H](O)[C@H]1O)[C@H]1CC[C@]2(C)[C@@H]1[C@H](O)C[C@@H]1[C@@]3(C)CC[C@H](O[C@@H]4O[C@H](CO)[C@@H](O)[C@H](O)[C@H]4O[C@@H]4O[C@H](CO)[C@@H](O)[C@H](O)[C@H]4O)C(C)(C)[C@@H]3CC[C@]12C` [ginsenoside Rb1], the “standing up of bed-ridden rats with spinal cord injury” value (spinal cord injury) is given as “could stand up bed-ridden rats”, the “scar or granulation formation in open wound (HE histology, FIG. 2)” value (open wound of skin; 12 μg once then 12 μg/day continuous iv for 7 days after 6 mm punch biopsy) is given as “scar or granulation formation was obviously little” and the “epithelization of open wound (FIG. 2)” value (open wound of skin; 12 μg/day continuous iv for 7 days after 6 mm punch biopsy) is given as “sufficient epithelization occurred”. For the same compound, the “extracellular fluid concentration that inhibits apoptosis or apoptosis-like cell death of nerve cells” value [1] was ≤ 1 ng/mL, the “side effect in administered animals” value [2] was “no side effect or ill effect was noted” and the “division and proliferation of skin epidermal keratinocytes or hornified cells” value [3] was “can promote division and proliferation of skin epidermal keratinocytes or hornified cells”.
